“And” between values parts separate entries of the source, which are not always exact repeats. Equal entries are not always repeated.
These compounds were tested against T1, Indoleamine 2,3-dioxygenase 1 (Homo sapiens, UniProt P14902) (assay: Inhibition of IDO1 (unknown origin)).
Target sequence in this assay (P14902 whole entry): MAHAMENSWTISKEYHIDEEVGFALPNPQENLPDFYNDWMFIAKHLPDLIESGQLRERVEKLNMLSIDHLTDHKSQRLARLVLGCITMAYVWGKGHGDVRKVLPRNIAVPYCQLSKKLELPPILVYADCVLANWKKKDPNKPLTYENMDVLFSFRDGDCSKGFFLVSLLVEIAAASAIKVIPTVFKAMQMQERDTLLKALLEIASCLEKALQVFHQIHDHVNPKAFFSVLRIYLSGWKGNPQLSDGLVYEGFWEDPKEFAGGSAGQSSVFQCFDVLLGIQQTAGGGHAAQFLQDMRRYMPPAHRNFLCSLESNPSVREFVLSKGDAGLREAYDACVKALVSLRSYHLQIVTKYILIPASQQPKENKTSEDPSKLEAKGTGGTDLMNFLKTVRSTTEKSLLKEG

SMILES | IC50 [nM]
COC1=CC(=O)c2c(O)c3c(c4c2[C@]12CC(=O)C[C@H]2[C@@]1(C[C@H](O)[C@H](O)CO1)O4)C[C@](C)(O)[C@H](O)C3 | 32300
COC1=C(OC)C(=O)C(CCC(C)C)=C(C)C1=O | 2800
COc1c(C(C)=O)c(C)cc2cc3c(c(O)c12)C(=O)C(C)(C)C(=O)C3(C)C | 1180
COC(=O)[C@H]1CCCN1C[C@@H](O)c1c(OC)cc2c(c1O)C(=O)c1cc(O)c(C)cc1C2=O | 500
CCc1c(OC)cc2c(c1O)C(=O)C[C@@H](OC)[C@@H]2O | 6360
COC1=C(OC)C(=O)C(Nc2ccccc2)=CC1=O | 600
C=C1CC[C@@H]2[C@](C)(CO)[C@H](O)CC[C@@]2(C)[C@@H]1C/C=C1/C(=O)OC[C@H]1O [ANDROGRAPHOLIDE] | 160000
COC1=C(OC)C(=O)C(Nc2ccccc2)=C(C)C1=O | 700
CNC(=O)[C@H]1[C@@H](OC)C2(O)c3ccccc3NC(=O)[C@@]2(C(=O)N[C@@H](CCC(=O)OC)C(=O)C=C(C)C)N1C (some centres not stated) | 10100

Next, values leading:

IC50 [nM] | SMILES
< 1000 | O=C(Cc1ccccc1)Nc1ccc(CCOc2ccccc2-c2cnc[nH]2)cc1
74000 | Brc1cc(Nc2ccc3nonc3c2)c2cn[nH]c2c1
270 | COC1=C(OC)C(=O)C(Nc2ccc(Cl)cc2)=CC1=O
2000 | CS[C@@]1(C)C(=O)N2[C@H]3N(c4ccc5oc6cc(=O)c(N)c(C(=O)O)c-6nc5c4C(=O)O)c4ccccc4[C@@]3(c3c[nH]c4ccccc34)[C@H](O)[C@]2(SC)C(=O)N1C
< 200 | Nc1oc2cnccc2c1Nc1ccc(F)c(Cl)c1
400 | COC1=C(OC)C(=O)C(Nc2cccc(NC(=O)Nc3ccccc3)c2)=C(C)C1=O

The compounds below were run against T1, Indoleamine 2,3-dioxygenase 1 (assay: Binding affinity to IDO1 (unknown origin) assessed as inhibition constant).
Target sequence in this assay (P14902 whole entry): as above

SMILES | Ki [nM]
NC(Cc1coc2ccccc12)C(=O)O (configuration not stated) | 70000
CCc1c(C)cc2c(c1O)C(=O)C1=C(C2=O)C(C)(C)OC1(O)C(=O)OC (configuration not stated) | 210
CC12CCCc3coc(c31)C(=O)c1cc3c(cc12)C(=O)C1NCCS(=O)(=O)C1C3=O (configuration not stated) | 86
CC12CCCc3coc(c31)C(=O)c1cc3c(cc12)C(=O)C1C(NCCS1(=O)=O)C3=O (configuration not stated) | 25
CCc1cc2c(cc1C)C(=O)C1=C(C2=O)C(OC)(C(=O)OC)OC1(C)C (configuration not stated) | 140

Further lines, results first:

Ki [nM] | SMILES
2000 | COC(=O)/C1=C/c2c([nH]c3ccccc23)/C(C(=O)OC)=C\c2c1[nH]c1ccccc21 [CAULERPIN]
7000 | NC(Cc1csc2ccccc12)C(=O)O (configuration not stated)

These compounds were tested against T1, Indoleamine 2,3-dioxygenase 1 (assay: Inhibition of IDO1 (unknown origin) at 1 mM relative to control).
Target sequence in this assay (P14902 whole entry, looked up): as the sequence (P14902 whole entry) above

inhibition [%] | SMILES
30 | O=C(O)C[C@H]1CNC(=O)c2cc(Br)c(Br)n21

The compounds below were run against T1, Indoleamine 2,3-dioxygenase 1 (assay: Inhibition of human IDO1 incubated for 30 mins by microplate reader based analysis).
Target sequence in this assay (P14902 whole entry): as above

IC50 [nM] | SMILES
5000 | COc1cc(O)c2c(c1)C(=O)C1=C(C2=O)[C@@H](C)O[C@@H](C)C1

What follows are compounds tested against T1, Indoleamine 2,3-dioxygenase 1 (assay: Inhibition of human recombinant IDO1 using L-tryptophan as substrate incubated for 10 mins by absorbance based analysis).
Target sequence in this assay (P14902 whole entry): as above

IC50 [nM] | SMILES
71 | COc1nsc2c1C(=O)c1c(O)cccc1C2=O

What follows are compounds tested against T1, Indoleamine 2,3-dioxygenase 1 (assay: Inhibition of IDO1 in human A549 cells by ELISA assay).
Assay type: cell-based
Target sequence in this assay (P14902 whole entry): as above

IC50 [nM] | SMILES
740 | CC(=O)NCCc1c(C(=O)c2ccccc2[N+](=O)[O-])[nH]c2ccc(Cl)cc12

These compounds were tested against T1, Indoleamine 2,3-dioxygenase 1 (assay: Inhibition of human IDO1 using L-tryptophan as substrate incubated for 1 hr by absorbance based analysis).
Target sequence in this assay (P14902 whole entry): as above

IC50 [nM] | SMILES
810 | O=C(NC(c1cccc(Br)c1)n1ccnc1)c1ccc([N+](=O)[O-])cc1 (configuration not stated)

These compounds were tested against T1, Indoleamine 2,3-dioxygenase 1 (assay: Inhibition of human IDO1 using L-tryptophan as substrate by methylene blue dye based spectrometric method).

IC50 [nM] | SMILES
5460 | Clc1ccc(-c2n[nH]c3ccccc23)cc1Cl
720 | O=C(NNc1ccccc1)c1n[nH]c2ccccc12
9520 | c1cncc(-c2n[nH]c3ccccc23)c1
19600 | c1ccc(-c2[nH]nc3ccccc23)cc1
17000 | Cc1ccc(S(=O)(=O)NNC(=O)c2n[nH]c3ccccc23)cc1

Each compound was assayed against T1, Indoleamine 2,3-dioxygenase 1 (assay: Inhibition of IDO1 (unknown origin) at 10 uM relative to control).
Target sequence in this assay (P14902 whole entry, looked up): as the sequence (P14902 whole entry) above

inhibition [%] | SMILES
> 70 | O[C@H]1CCCC[C@@H]1CNc1cc(Br)cc2[nH]ncc12

The compounds below were run against T2, Indoleamine 2,3-dioxygenase 1 (Mus musculus, UniProt P28776) (assay: Inhibition of mouse IDO1 using L-tryptophan as substrate by methylene blue dye based analysis).
T2 sequence (P28776 whole entry): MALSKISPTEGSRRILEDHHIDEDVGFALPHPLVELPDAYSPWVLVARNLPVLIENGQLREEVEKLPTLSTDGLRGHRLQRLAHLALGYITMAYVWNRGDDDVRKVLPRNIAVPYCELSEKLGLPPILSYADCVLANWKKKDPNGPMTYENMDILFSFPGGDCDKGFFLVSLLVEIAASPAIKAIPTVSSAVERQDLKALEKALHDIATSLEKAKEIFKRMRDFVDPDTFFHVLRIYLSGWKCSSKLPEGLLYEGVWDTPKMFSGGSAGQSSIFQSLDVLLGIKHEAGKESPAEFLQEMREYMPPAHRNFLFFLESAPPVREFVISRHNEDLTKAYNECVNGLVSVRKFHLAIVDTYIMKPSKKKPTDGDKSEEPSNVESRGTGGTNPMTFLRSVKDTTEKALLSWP

IC50 [nM] | SMILES
560 | c1ccc(Nc2ccc3c[n+]4ccccc4cc3c2)cc1
> 50000 | CN(C)c1ccc(Nc2ccc3c[n+]4ccccc4cc3c2)cc1
39600 | Clc1cccc(Nc2ccc3c[n+]4ccccc4cc3c2)c1
530 | Fc1ccc(Nc2ccc3c[n+]4ccccc4cc3c2)cc1
17000 | Cc1ccc(Nc2ccc3c[n+]4ccccc4cc3c2)cc1
> 66000 | COc1ccc(Nc2ccc3c[n+]4ccccc4cc3c2)cc1
510 | Clc1ccc(Nc2ccc3c[n+]4ccccc4cc3c2)cc1

The compounds below were run against T1, Indoleamine 2,3-dioxygenase 1 (assay: Inhibition of IDO1 in human HeLa cells).
Assay type: cell-based

EC50 [nM] | SMILES
51 | N#Cc1ccc(NC(=O)Nc2ccc(S(=O)(=O)NNc3ccc(Br)cc3)cc2)cc1

What follows are compounds tested against T1, Indoleamine 2,3-dioxygenase 1 (assay: Inhibition of human IDO1).

IC50 [nM] | SMILES
199 | N#Cc1ccc(NC(=O)Nc2ccc(S(=O)(=O)NNc3ccc(Br)cc3)cc2)cc1

The compounds below were run against T1, Indoleamine 2,3-dioxygenase 1 (assay: Inhibition of human IDO1 expressed in Escherichia coli using L-tryptophan as substrate incubated for 30 mins by methylene blue dye based microplate reader analysis).

IC50 [nM] | SMILES
100 | COC1=CC(=O)c2c(nc(COc3ccc([N+](=O)[O-])cc3)n2C)C1=O
7200 | COC(=O)c1c(C)oc2c1C(=O)C(OC)=CC2=O
1000 | COC1=CC(=O)c2sc(C)c(CO)c2C1=O
10000 | COC1=CC(=O)c2c(c(CO)c(C)n2C)C1=O
1000 | COC1=CC(=O)c2c(c(CO)nn2C)C1=O
500 | COC1=CC(=O)c2c(oc(C)c2CO)C1=O

These compounds were tested against T1, Indoleamine 2,3-dioxygenase 1 (assay: Inhibition of IDO1 (unknown origin) at 1 uM relative to control).
Target sequence in this assay (P14902 whole entry, looked up): as the sequence (P14902 whole entry) above

inhibition [%] | SMILES
75 | N#Cc1ccc(Cc2cn(Cc3cnc4scc(-c5ccc(Br)cc5)n34)nn2)cc1
70 | O=C(NCc1cnc2scc(-c3ccc(Br)cc3)n12)n1cc(C2CC2)nn1

The compounds below were run against T1, Indoleamine 2,3-dioxygenase 1 (assay: Inhibition of IDO1 in HEK293 cells at 20 uM incubated for 24 hrs by LC-MS/MS analysis relative to control).
Assay type: cell-based
Target sequence in this assay (P14902 whole entry, looked up): as the sequence (P14902 whole entry) above

inhibition [%] | SMILES
80 | O/N=C(\Nc1ccc(F)c(Br)c1)c1cccc2cn[nH]c12

The compounds below were run against T1, Indoleamine 2,3-dioxygenase 1 (assay: Inhibition of human recombinant N-terminal his6-tagged IDO1 expressed in Escherichia coli BL21 using L-tryptophan as substrate incubated for 1 hr by methylene blue dye based UV-Vis spectrophotometer analysis).

IC50 | SMILES
92 nM and 28 nM | NS(=O)(=O)NCCNC(=O)c1n[nH]nc1/C(=N/O)Nc1ccc(F)c(Br)c1

Each compound was assayed against T1, Indoleamine 2,3-dioxygenase 1 (assay: Inhibition of IDO1 in human MDA-MB-231 cells).
Assay type: cell-based

IC50 [nM] | SMILES
28 | NS(=O)(=O)NCCNC(=O)c1n[nH]nc1/C(=N/O)Nc1ccc(F)c(Br)c1

What follows are compounds tested against T2, Indoleamine 2,3-dioxygenase 1 (assay: Inhibition of IDO1 in mouse LLTC cell line).
Assay type: cell-based

IC50 [nM] | SMILES
6000 | COc1cccc2c1C(=O)C1=C(C[C@H](Cn3cc(-c4ccccc4)nn3)O[C@@H]1C)C2=O
800 | COc1ccc2c(c1)C(=O)C1=C(C2=O)[C@@H](C)O[C@@H](CC(=O)O)C1

These compounds were tested against T1, Indoleamine 2,3-dioxygenase 1 (assay: Inhibition of IDO1 in human HeLa cells assessed as inhibition of kynurenine production incubated for 30 mins by microplate reader based analysis).
Assay type: cell-based

IC50 [nM] | SMILES
100 | CCN(c1ncc(C2(C(=O)O)CCC2)cc1Nc1ccc(Cl)cc1)C1CCOCC1
< 1000 | Cc1cc(Cl)nc2onc(N)c12
